Results reported in paper PMC5161367, “Discovery of Novel Small Molecule Inhibitors of VEGF Expression in Tumor Cells Using a Cell-Based High Throughput Screening Platform” (PLoS ONE, 2016).
Like-named read-outs stand apart in the source and are kept apart here.

Tests used:
[1] = Microsome metabolism - rat; format: in vitro ADME
Procedure: (§1) Pharmacological characterization of PTC-510. Pharmacological assays were performed to characterize PTC-510, including metabolic stability in human, primate mouse and rat liver microsomes; absorption in Caco-2 cells; in vitro effect on hERG ion channel; pharmacokinetics; and acute toxicity in the rat.

[2] = biological target: T1, phosphodiesterase 5 (PDE5) (Homo sapiens, UniProt O76074); experiment: PDE5 in vitro enzyme assay (fluorescence polarization); format: biochemical; settings: tadalafil positive control
T1 construct: purchased CalBiochem 524715
Procedure: PDE5 activity was measured with a PDE5 assay kit (cat#: R8039, Molecular Devices) according to manufacturer’s instructions. PDE5 enzyme was purchased from CalBiochem (cat#: 524715). Tadalafil (Cialis® was used as a positive control. Assays were performed in 96-well plates in duplicate, the fluorescence polarization was determined on a ViewLux microplate reader (Perkin Elmer) using the instrument settings recommended by the manufacturer. (DOC) Click here for additional data file.
PDE5 activity was quantified usinga PDE5 assay kit (cat#: R8039, Molecular Devices) according to manufacturer’s instructions. PDE5 enzyme was purchased from CalBiochem (cat#: 524715). The positive control, tadalafil (Cialis®), was synthesized in house. Assays were performed in 96-well plates in duplicate and fluorescence polarization was determined on a ViewLux microplate reader (Perkin Elmer) using the instrument settings recommended by the manufacturer.

VEGF = VEGF ELISA, hypoxia-induced VEGF production in HeLa cells; format: cell-based; settings: Homo sapiens; for IC50: HeLa cells under hypoxia, read-out: IC50, inhibition of hypoxia induced VEGF production (VEGF ELISA)
Procedure: Cells were treated with vehicle control (0.5% DMSO) or compounds at the indicated concentration for 48 hours, and specific proteins in conditioned medium were quantified using commercially available ELISA kits (R&D Systems) according to the manufacturer’s recommendations. VEGF was quantified in HeLa cells under hypoxia (1% oxygen); Tumor necrosis factor alpha (TNFα) was quantified in CEM cells stimulated with 1 μg/mL interleukin-1 beta (Sigma); erythropoietin (EPO) was quantified in HepB3 cells under hypoxic conditions (1% oxygen); and granulocyte colony-stimulating factor (G-CSF), basic fibroblast growth factor (FGF-2) and insulin-like growth factor 1 (IGF-1) were quantified without induction in HT1080 cells, HeLa cells and HepG2 cells, respectively.
A sigmoid dose-response with variable slope regression curve was generated for each compound. The maximal and minimal inhibition values were set at 100% and 0%, respectively. IC50 and CC50 values were automatically calculated after curve fitting by the software.
Hits from the HTS were then evaluated for their ability to modulate hypoxia-inducible endogenous VEGF expression. HeLa cells were cultured under hypoxic conditions (1% O2, 5% CO2, balanced with nitrogen) in the presence or absence of compound at a concentration of 7.5 μM in duplicate. VEGF protein levels in the conditioned medium were quantified by ELISA. […] Compounds that reduced endogenous hypoxia-induced VEGF by 50% or more at a single concentration of 7.5 μM were further evaluated.
The IC50 values for compounds that inhibited VEGF production were determined next. A seven-point dose-response analysis was performed for each of the 137 compounds. In parallel, a dose-response cytotoxicity assay was performed to determine the CC50 (the concentration resulting in 50% cellular growth inhibition or cytotoxicity) under the same conditions as VEGF ELISA to determine whether hypoxia-induced VEGF inhibition was due to cytotoxicity.

[3] = Microsome metabolism - primate; format: in vitro ADME
Procedure: as §1

[4] = Plasma exposure after a single oral dose in mice; format: in vivo, mouse; settings: male C57BL/6 mice, single oral dose 10 mg/kg, 5% DMSO and 95% PEG300
Procedure: Supplementary file pone.0168366.s006.doc: S6 Fig Exposure of PTC-510 after oral administration. Male C57BL/6 mice were dosed with test compound in 5% DMSO and 95% PEG300. At specified time points (3 mice per time point), mice were euthanized and blood collected by terminal cardiac puncture. Plasma test compounds were then measured by LC/MS-MS. (DOC) Click here for additional data file.
Male C57BL/6 mice were administered test compounds in 5% DMSO and 95% PEG300 at a dose of 10 mg/kg. At specified time points (3 mice per time point), mice were euthanized and blood collected by terminal cardiac puncture. Plasma concentrations of test compounds were then quantified by LC/MS-MS.

[5] = Microsome metabolism - human; format: in vitro ADME
Procedure: as §1

[6] = system: membrane bound VEGF (VEGF189 and VEGF206); experiment: Western blot of membrane bound VEGF isoforms; format: cell-based, human
Procedure: Cells were treated with test compounds for the indicated times as shown in the Results section. Whole-cell extracts were obtained by lysing cells in M-PER lysis buffer (Pierce, Rockford, IL) containing 150 mM NaCl, 2 mM EDTA and 1x Halt protease inhibitors (Pierce). Samples were resolved on a Tris-glycine Criterion gel (Bio-Rad) and transferred onto a 0.45 μm nitrocellulose membrane. The membranes were then immunoblotted with specific antibodies as shown in the Results section: antibody (C1) specific for VEGF was purchased from Santa Cruz Biotechnologies (used at 1:200 dilution); and antibody specific for human β-actin was purchased from Abcam (Cambridge, MA) (1:10000 dilution). Immunodetection was done using the corresponding secondary antibodies conjugated with infrared dyes or horseradish peroxidase. The expression levels of proteins were quantified with Odyssey (LI-COR) or using enhanced chemiluminescence (Pierce).
The effect of PTC-858 on the levels of the soluble and membrane bound VEGF isoforms was characterized. The levels of the soluble VEGF isoforms (VEGF121 and VEGF165) were assessed from conditioned medium as described above. The effect of PTC-858 on the production of the high molecular weight, membrane bound isoforms (VEGF189 and VEGF206), was determined by Western blot analysis using a VEGF specific antibody. β-actin levels were used as an internal loading control. […]

| SMILES | Microsome metabolism - rat, % loss @ 1 h [1] | inhibition of PDE5 activity [2] | IC50 (VEGF) | EC50 (VEGF; HeLa cells, read-out: HeLa VEGF ELISA/SAR EC50) | EC90 (VEGF; HeLa cells, read-out: HeLa VEGF ELISA/SAR EC90) | Microsome metabolism - primate, % loss @ 1 h [3] | bio-availability and exposure compared to PTC-858 [4] | Microsome metabolism - human, % loss @ 1 h [5] | effect on production of membrane bound VEGF189/206 (Western blot) ([6]; Fig 4c) | EC50 (VEGF; HeLa cells under hypoxia (1% oxygen), 48 hours, read-out: ELISA EC50, VEGF) | effect on level of membrane bound VEGF (Western blot) ([6]; HeLa cells (text b57), β-actin loading control) |
| --- | --- | --- | --- | --- | --- | --- | --- | --- | --- | --- | --- |
| COc1ccc(C2c3[nH]c4ccc(Br)cc4c3CC3C(=O)N(C4CCCCC4)C(=S)N32)cc1.O=C(O)C(F)(F)F (stereo not drawn) [PTC-510, 9-bromo-2-cyclohexyl-5-(4-methoxyphenyl)-3-thioxo-2,3,5,6,11,11a-hexahydro-1H-imidazo[1’,5’:1,6]pyrido[3,4-b]indol-1-one trifluoroacetate] | 0% | did not inhibit PDE5 activity | ~6 nM | 6 nM | 50 nM | 0% | much better bio-availability and exposure | 0% | inhibits the production of the membrane bound VEGF189/206 |  |  |
| Brc1ccc2[nH]c3c(c2c1)CCCC3n1cccc1 (stereo not drawn) [PTC-858, 6-bromo-1-(1H-pyrrol-1-yl)-2,3,4,9-tetrahydro-1H-carbazole] |  |  | 7.5 nM |  |  |  |  |  |  | 13 ± 20 nM | reduced the level of membrane bound VEGF in HeLa cells in a dose-dependent fashion |
